These results are taken from ChEMBL document CHEMBL1148183, “Anti-inflammatory activity of two flavonoids from Tanacetum microphyllum” (1993).

Calls of active or inactive are those of the source. No cut-off for these calls is given here.

Assay [1] concerns Mus musculus. As to the kind of experiment: Antiinflammatory activity against carrageenan-induced paw edema in Swiss mouse at 10 mg/kg, po administered 1 hr before carrageenan challenge measured after 3 hrs. The assay is classed as functional.
The test system of assay [2] is Mus musculus. As to the kind of experiment: Antiinflammatory activity against carrageenan-induced paw edema in Swiss mouse at 10 mg/kg, po administered 1 hr before carrageenan challenge measured after 5 hrs. The assay is classed as functional. (The carrageenan paw model is a standard test of acute inflammation.)
Assay [3] has as its system Mus musculus. As to the kind of experiment: Antiinflammatory activity against carrageenan-induced paw edema in po dosed Swiss mouse administered 1 hr before carrageenan challenge measured after 7 hrs. The assay is classed as functional, organism-based.
Assay [4] relates to Mus musculus. As to the kind of experiment: Antiinflammatory activity against carrageenan-induced paw edema in Swiss mouse at 25 mg/kg, po administered 1 hr before carrageenan challenge measured after 3 hrs. The assay is classed as functional.
The subject of assay [5] is Mus musculus. Put plainly: Antiinflammatory activity against carrageenan-induced paw edema in Swiss mouse at 25 mg/kg, po administered 1 hr before carrageenan challenge measured after 5 hrs. The assay is classed as functional.
The subject of assay [6] is Mus musculus. Put plainly: Antiinflammatory activity against carrageenan-induced paw edema in Swiss mouse at 80 mg/kg, po administered 1 hr before carrageenan challenge measured after 3 hrs. The assay is classed as functional.
Assay [7] has as its system Mus musculus. As to the kind of experiment: Antiinflammatory activity against carrageenan-induced paw edema in Swiss mouse at 80 mg/kg, po administered 1 hr before carrageenan challenge measured after 5 hrs. The assay is classed as functional.

Turning to `COC(=O)c1cc(O)c2c(=O)c(O)c(-c3ccc(OC)c(O)c3)oc2c1`, the inhibition in vivo at 10 mg/kg in the assay on Mus musculus [1] was found to be 64.9%; in the assay on Mus musculus [2], 52.7%. Also, the outcome in the assay with Mus musculus [3] was Active.
Turning to `COc1ccc(-c2oc3cc(O)c(OC)c(O)c3c(=O)c2OC)cc1O` [CENTAUREIDIN], the inhibition in vivo at 25 mg/kg with Mus musculus [4] worked out at 67.6%; in the assay on Mus musculus [5], 55.5%.
Turning to `CCCCC1C(=O)N(c2ccccc2)N(c2ccccc2)C1=O` [PHENYLBUTAZONE], the inhibition in vivo at 80 mg/kg came to 51.4% with Mus musculus [6] and 47.2% in the assay on Mus musculus [7].

What is called inhibition in vivo is the relative decrease from the control value, in per cent. Read a low inhibition in vivo as little suppression.
